Tested on: naive T cells in PBMCs of HIV-1-seronegative individuals
Assay: In vitro priming of epitope-specific CD8+ T cells from naive T cells (accelerated dendritic cell coculture, tetramer staining)
Format: cell-based, human
Protocol: Naive CD8^+ T-cell precursors specific for HLA-B*52:01-restricted, HLA-A*24:02-restricted, or HLA-C*12:02-restricted ones were primed in vitro by using the accelerated dendritic cell coculture protocol ([23], [24], [56], [57]). On day 0, frozen-thawed PBMCs of HIV-1-seronegative individuals having the HLA-B*52:01-C*12:02 haplotype or HLA-A*24:02 were suspended at 5 × 10^6 cells/well in 24-well tissue culture plates containing AIM-V medium (Invitrogen) supplemented with Flt3L (50 ng/ml; R&D Systems). AIM-V medium supplemented with a 10 μM concentration of each peptide and STING ligand 3′3′-cGAMP (10 μg/ml; InvivoGen) was added on day 1, and then FCS was further added to 10% by volume per well on day 2. On day 10, the cells were collected and then stained with epitope-specific tetramers.
HLA-B*52:01-RI8, -MI8, -SI8, or -WV8 peptide tetrameric complexes (tetramers) and HLA-A*24:02-RF10, HLA-C*12:02-IY11, -MY9, or -RL9 complexes were generated as previously described ([58]). CD8^+ T cells specific for a given epitope were stained with phycoerythrin (PE)-conjugated epitope-specific tetramers at 37°C for 30 min. The cells were then washed twice with RPMI 1640 medium containing 5% FCS (R5), followed by staining with allophycocyanin (APC)-conjugated anti-CD8 MAb (Dako, Denmark) and 7-aminoactinomycin D (7-AAD; BD Pharmingen) at 4°C for 30 min. Finally, the cells were washed twice with R5 and then analyzed by using a FACS Canto II. Primed T cells unstained with tetramer were used as a negative control to determine gating of the tetramer^+ population. The tetramer^+ population was determined based on the gating of the negative control ([…] of tetramer^+ cells).

[1] = HIV-1-uninfected individuals having HLA-B*52:01-C*12:02 haplotype

SMILES: Nc1nc2c(ncn2[C@@H]2O[C@@H]3COP(=O)(O)O[C@H]4[C@@H](O)[C@H](n5cnc6c(N)ncnc65)O[C@@H]4COP(=O)(O)O[C@H]3[C@H]2O)c(=O)[nH]1 [3′3′-cGAMP]
- priming of CD8+ T cells specific for HLA-B*52:01-restricted epitopes from naive T cells [1]: effectively primed CD8^+ T cells specific for 3 of 4 HLA-B*52:01-restricted epitopes
- priming of CD8+ T cells specific for HLA-C*12:02-restricted epitopes from naive T cells [1]: failed to prime those specific for all 3 HLA-C*12:02-restricted epitopes
- mean frequency of NefRF10-specific T cells ± 2 SD (stimulated with 3′3′-cGAMP (10 μg/ml) and NefRF10 peptide (10 μM) after Flt3 ligand 24 h, PBMCs from 7 HIV-1-seronegative HLA-A*24:02+ individuals, HLA-A*24:02-NefRF10 tetramer, 10-day culture, SD): 0.206% ± 0.186%

From publication PMC8312882, “STING Ligand-Mediated Priming of Functional CD8^+ T Cells Specific for HIV-1-Protective Epitopes from Naive T Cells” (Journal of Virology, 2021)
